Reference: patent US9707185B2, “Water-soluble nanoparticles containing water-insoluble compounds” (Board of Supervisors of Louisana State University And …, priority 2007, dated 2017)
Like-named read-outs stand apart in the source and are kept apart here.

Experiments:
[1] = cited from earlier work; for Comments: solubility: water / lipid solubility; for Comments: stability: light, heat, acid, oxidation, SO2, ascorbic acid
[2] = β-carotene solubility in organic solvents; assay type: physicochemical; conditions: organic solvent or mixture
[3] = color photographs, dispersed in water

Row | Molecule | Comments: solubility [1] | Comments: stability ([1]; in presence of ascorbic acid) | also measured
1 | COc1cc(/C=C/C(=O)CC(=O)/C=C/c2ccc(O)c(OC)c2)ccc1O [Curcumin] | low water solubility | – | –
2 | CC1=C[C@H](O)CC(C)(C)[C@H]1/C=C/C(C)=C/C=C/C(C)=C/C=C/C=C(C)/C=C/C=C(C)/C=C/C1=C(C)C[C@@H](O)CC1(C)C [Lutein] | – | Fades in the presence of ascorbic acid. | Comments: stability ([1]; to light): Poor stability to light, heat, acid, oxidation, and SO2.
3 | CC1=C(/C=C/C(C)=C/C=C/C(C)=C/C=C/C=C(C)/C=C/C=C(C)/C=C/C2=C(C)CCCC2(C)C)C(C)(C)CCC1 [β-carotene] | – | – | solubility [2]: ≤ 20 mg/mL; color and distribution in water [3]: non-uniform color and distribution
4 | Chlorophyll | Liposoluble. Not allowed as a colorant in the U.S. | – | –
5 | Cc1c(C(=O)O)c(O)cc2c1C(=O)c1c(O)c([C@@H]3O[C@H](CO)[C@@H](O)[C@H](O)[C@H]3O)c(O)c(O)c1C2=O [Carmine, carminic acid, carminic acid] | Water soluble | Fades in the presence of ascorbic acid or SO2 | Comments: stability ([1]; to light, heat and acid): Good stability to light, heat, and acid
6 | Capsanthin/capsorubin | – | – | Comments: stability [1]: Fair stability to light and heat
